Type in all cases: nucleic-acid assay
Settings in all cases: Bos taurus

The test system of assay [1] is Nucleic Acid. Nature of the assay: Delta Tm is the difference between the melting temperature of calf thymus DNA in the presence and absence of 2-peptide conjugate at a 10:1 ratio of DNA/drug.
In assay [2] the test system is Nucleic Acid. Nature of the assay: Percent maximum loss of ethidium bromide (EtBr) fluorescence bound to DNA (ratio 1:3) in presence of 2-peptide conjugate.
The test system of assay [3] is Nucleic Acid. Nature of the assay: Delta Tm is the difference between the melting temperature of calf thymus DNA in the presence and absence of 2-peptide conjugate at a 10:1ratio of DNA/drug.

Consider H-AAKCRAA-OH, for which the ΔTm in the assay with Nucleic Acid [1] came out at 6.
Same read-out and setting: as for H-AKCRA-OH, the figure is 7.5.
Turning to H-AKCRDA-OH, the Quench in the assay with Nucleic Acid [2] was determined as 5%. The ΔTm with Nucleic Acid [1] is 5.5.
Take H-AKCRDRA-OH: the ΔTm with Nucleic Acid [1] came out at 10.3.
On the same count and under the same terms, as for H-AKCRKA-OH, the figure is 7.3.
Take H-AKCRKRA-OH: the Quench with Nucleic Acid [2] was 45%. Besides, in the assay with Nucleic Acid [1], the ΔTm was 9.
In the case of H-AKSRA-OH, in the assay with Nucleic Acid [1], the ΔTm is 5.5.
Regarding H-ARCKA-OH, the ΔTm in the assay with Nucleic Acid [3] amounted to 4.8.

These data come from ChEMBL document CHEMBL1134165, “Anthraquinone-peptides as inhibitors of AP-1 transcription factor” (Bioorg Med Chem Lett, 2001).
